Measured values as given in publication PMC8772772, “Enantioselective Synthesis and Pharmacological Evaluation of Aza-CGP37157–Lipoic Acid Hybrids for the Treatment of Alzheimer’s Disease” (Antioxidants, 2022).
Read-outs that look alike come from different tables or passages of the source.

Columns and labels:
[1] = tested on: SH-SY5Y neuroblastoma cells; assay: Neuroprotection against rotenone/oligomycin A oxidative stress in SH-SY5Y cells (MTT); format: cell-based, human; details: compound 1 μM 24 h, then compound + R/O (30/10 μM) 24 h; for % Survival: basal = 100, R/O alone 53.4
Experimental: (§1) Human neuroblastoma SH-SY5Y cells were plated in 96-well clear multi-well plates (6 × 10^4 cells/well). The potential neuroprotective activity of compounds against OS was evaluated using the rotenone (30 μM) (SigmaAldrich, R8875) and oligomycin A (10 μM) (SigmaAldrich, 75351) (R/O) toxic mixture. Neuroprotection activity against Tau hyperphosphorylation was evaluated by using the okadaic acid (20 nM) model. Cells were pre-incubated with each compound (1 µM) for 24 h, and then treatments were removed and cells were incubated with compounds (1 µM) in the presence the corresponding toxic for additional 24 h. At the end of the experiments, viability was determined by the MTT method. Data were normalized from cell death induced by the toxic stimuli (considered as 100% cell death). Then, the protection percentages were calculated by subtracting from the death induced by toxic stimuli, the death in the presence of the compound.
(§2) The tetrazolium ring of MTT can be cleaved by active dehydrogenases to produce a formazan precipitate. At the end of the experiments, MTT (SigmaAldrich, M2003) stock solution was added to each well to achieve a final concentration of 0.5 mg/mL. Cells were incubated for 2 h. Thereafter, culture media was removed, and DMSO was added to each well to dissolve the formazan precipitate. Finally, absorbance was measured in a microplate reader (SPECTROstar nano, BMG Labtech) at 570 nm. Absorbance obtained in basal conditions was considered as 100% cell viability.
Thus, we selected a pre-incubation protocol to evaluate their potential neuroprotective capacity based on the NRF2-induction activity and direct antioxidant effect. Compound pre-incubation would induce the expression of antioxidant enzymes regulated by the phase II antioxidant response, thus promoting cells’ survival. The co-incubation period would also evaluate their capacity to trap free radicals produced by intoxicated mitochondria. SH-SY5Y neuroblastoma cells were treated with compounds (1 µM) during 24 h, and then cells were co-incubated with the corresponding compound at the same concentration and the R/O combination (30/10 µM) for additional 24 h. Melatonin, a well-known antioxidant natural neurohormone, was included as a positive control (1 µM). Previously reported racemic derivatives (rac-3a and (rac,R)-3b) and their precursors ((±)-6, R-6 and S-6) were included for comparative purposes at the same concentration.

NRF2 [2] = details: AREc32 cells, 24 h; Table S1; ref [2] of the supplement; cited from earlier work
[3] = tested on: SH-SY5Y neuroblastoma cells; assay: Neuroprotection against okadaic acid hyperphosphorylation in SH-SY5Y cells (MTT); format: cell-based, human; details: compound 1 μM 24 h, then compound + OA 24 h; for % Survival: basal = 100, OA alone 54.7; for % Protection: n.p = compound does not protect cells
Experimental: as §1, §2
Considering these precedents, we envisaged the evaluation of our compounds in a hyperphosphorylation toxicity model induced by okadaic acid (OA), a protein phosphatase 2A inhibitor [58, 59]. This inhibition causes an imbalance between kinase and phosphatase action, leading to hyperphosphorylation of proteins, in particular, Tau. Thus, treatment of SH-SY5Y neuroblastoma cells with OA is a well-stablished model of Tau hyperphosphorylation. Similarly, to the method used for the OS model, we selected a pre-incubation/co-incubation protocol to evaluate the potential neuroprotection capacity related to the NRF2 induction/antioxidant properties of the compounds. Cells were treated with compounds (±)-6, R-6, S-6 or 7a–d (1 µM) during 24 h; thereafter, cells were co-treated with compounds (1 µM) and OA (20 nM) for a further 24 h. Melatonin was also included as a positive control. Finally, cellular viability was evaluated by the MTT method. […] Finally, the (R,S)-7c diastereomer was not able to afford any protection, a result that might be in line with its low NRF2 induction capacity.

BV2 microglial cells = assay: Nitrite production reduction in LPS-stimulated BV2 microglial cells (Griess); format: cell-based, mouse; details: Mus musculus, BV-2; 24 h pretreatment 0.3, 3, 10, 30 μM, then compound + LPS 100 ng/mL 18 h, Griess
Experimental: BV2 microglial cells were seeded at 2 × 10^4 cells/well and treated with compounds at increasing concentrations during 24 h in complete culture media. Then, treatments were removed, and BV2 cells were co-incubated with compounds and LPS (100 ng/mL) (O127:B8, SigmaAldrich, L3129) for additional 18 h in culture media supplemented with 1% FBS. Each plate included non-treated cells as basal nitrite production. Thereafter, nitrite production was determined by using the modified Griess assay. In brief, samples (150 μL) were mixed with DAPSONE (75 μL) (SigmaAldrich, A74807) and NEDA (75 μL) (SigmaAldrich, 33461), and the mixture was incubated at room temperature for 5 min. Light absorption was measured at 550 nm in a microplate reader (SPECTROstar nano, BMG Labtech). Basal nitrite production was referred to as 100% of nitrite production, and all data were normalized to the basal condition. Concentration needed to reduce nitrite production to 50% was calculated from graphical representation of percentage of nitrite production vs. compound concentration, and data were fitted by non-linear regression and interpolated to 50%.
Chronic neuroinflammation is considered a key pathological event in the early stages of AD development. Among immune cells present at CNS, microglia is related to host defense and tissue repair. Nonetheless, chronic neuroinflammation induced by an adverse environment of protein aggregates and exacerbated OS induces a neurotoxic activity of microglia that, finally, leads to neuronal death. […] To this end, we selected the BV2 microglial cell model stimulated by lipopolysaccharide (LPS), a TLR4 agonist that activates the pro-inflammatory response. CGP37157, R- and S-LA; analogue compounds rac-3a and (rac,R)-3b; and precursor derivatives 6 were included with comparative and reference purposes. Microglial BV2 cells were treated with increasing concentrations of the corresponding compound (0.3, 3, 10 and 30 µM) for 24 h following a pre-incubation protocol. Thereafter, treatments were exchanged by a combination of the corresponding compound at desired concentration and LPS (100 ng/mL) during 18 h. At the end of this period, nitrite production was evaluated by the Griess method as an indirect measurement of iNOS enzyme expression and BV2 activation.

NRF2 [4] = assay: NRF2 induction, luciferase expression in AREc32 cell line; format: cell-based; details: AREc32 cells, 0.3, 3, 10 and 30 μM (LA: 0.1–0.6 mM), 24 h; mean ± SEM
Experimental: AREc32 cell line was kindly shared by Professor Roland Wolf (University of Dundee, UK). AREc32 cells were maintained in DMEM/glutamax/high glucose (Gibco, 61965-06, Madrid, Spain), supplemented with 1% penicillin–streptomycin (10,000 units) (SigmaAldrich, P4333, Madrid, Spain), geneticin (0.8 mg/mL) (Gibco, 11811-031) and 10% FBS (Gibco, 10270106), at 37 °C in a 5% CO2 air atmosphere. Cells were used from passage 4 to 18, and mycoplasma contamination was tested every 4 weeks. AREc32 cells were seeded in 96-well white plates (2 × 10^4 cells/well) for 24 h. Thereafter, cells were treated with each compound (0.3, 3, 10 and 30 µM) in duplicate for 24 h. Non-treated cells were included as basal luciferase expression and tert-butylhydroquinone (TBHQ, 10 μM) as positive control in each plate. Luciferase expression was evaluated by using the Luciferase Assay System (Promega, E1483, Madrid, Spain) by luminescence in an Orion II microplate luminometer (Berthold, Germany). Luciferase activity increase was normalized to basal conditions considered as 1. CD values (concentration required to double the luciferase activity) were calculated from dose–response curves of luciferase fold induction vs. compound concentration, fitted by non-linear regression and data interpolated to value 2.
To evaluate the influence of both stereogenic centers in the NRF2 induction capacity of aza-CGP37157-LA hybrids, we used the AREc32 cell line model by analyzing luciferase expression upon treatment with NRF2 inducers. AREc32 cells were exposed to increasing concentrations of tested compounds 7a–d (0.3, […], 10 and 30 μM) during 24 h; thereafter, luciferase expression was evaluated by luminescent assay to calculate the corresponding CD value (concentration to double luciferase expression). […] TBHQ was included as a positive control, and CGP37157, S- and R-LA, rac-3a and (rac,R)-3b and precursors derivatives (R-6 and S-6) were included for comparative purposes. […] Once R-LA is reduced, it might activate the phase II antioxidant response by acting as pro-oxidant over key Cys residues at KEAP1 to generate the corresponding lipoyl-cystinyl disulphide.

[5] = DPPH reduction assay, antioxidant capacity; details: for IC50: mean ± SEM of three experiments; for DPPH Scavenging at 100 µM, %: compound 100 µM; for DPPH Scavenging at 100 µM, % / DPPH Scavenging at 1mM, %: DPPH 100 µM, 30 min, mean ± SEM; for DPPH Scavenging at 1mM, %: compound 1 mM
Experimental: Antioxidant capacity was evaluated by using described procedure slightly modified. Compounds (0.1 and 1 mM, final concentration) were diluted in assay media (EtOH/H2O, 70:30) and mixed with 100 μL of DPPH (SigmaAldrich, D9132, Madrid, Spain) solution (100 μM final concentration) in a clear 96-multiwell plate. Final solution was kept in dark for 30 min, and absorbance of DPPH was measured in a SpectroStar Nano plate-reader (BMG Labtech, Ortenberg, Germany) in duplicate at […]. All experiments included a blank (assay media), control (DPPH 100 μM) and a positive control (ascorbic acid, 100 μM). Data were evaluated as % absorbance (Abs) reduction of control after subtracting blank absorbance. % DPPH reduction = [100 − ((Abssample − Absblank) × 100]/Abscontrol
Initially, we evaluated the free-radical-scavenging capacity of derivatives 7a–d in the DPPH assay, based on the capacity of the tested derivatives to react with the 2,2-diphenyl-1-picrylhydracil radical to generate a non-radical derivate. Hybrid derivatives 7a–d were evaluated at two different concentrations (0.1 and 1 mM), considering the activities of previously reported racemic derivatives. […] Ascorbic acid was used as a positive control, and CGP37157, rac-3a and (rac,R)-3b were included as references. […] Those results are similar to those obtained for racemic mixtures 3a and 3b and a mixture of (S,R)-7b and (R,R)-7d obtained from rac-3 and R-lipoic acid.

[6] = Cytotoxicity in SH-SY5Y cell line (MTT); format: cell-based; details: human
Experimental: SH-SY5Y human neuroblastoma cells were seeded in 96-well clear multi-well plates (6 × 10^4 cells/well). Cells were treated with increasing concentrations of compounds (10, 30 and 100 μM) for 24 h. Thereafter, viability was assessed by the MTT method. Cytotoxic concentration to observe 50% mortality (CC50) values for compounds were interpolated from dose–response curves represented as percentage of cell death vs. concentration of compound, fitted by non-linear regression and data interpolated to value 50.
as §2
In order to evaluate the potential pharmacological profile of new compounds, we first tested the potential neurotoxicity in the neuroblastoma SHSY5Y cell line. Toxicity was evaluated at increasing concentrations (10, 30 and 100 μM), and toxicity was measured as MTT reduction capability. CC50 values were calculated by non-linear regression of curves % survival vs. concentration (Supplementary Materials Figure S2). CGP37157 and previously studied racemic derivatives rac-3a and (rac,R)-3b were included as reference compounds. As previously described, LA is a non-neurotoxic compound at the concentrations texted.

SMILES | % Survival [1] [%] | CD (concentration required to double the specific luciferase activity) (NRF2 [2]) [µM] | % Survival [3] [%] | % Protection [3] [%] | IC50 (BV2 microglial cells) [µM] | CD (concentration required to double the specific luciferase activity) (NRF2 [4]) [µM] | IC50 [5] [µM] | % Protection [1] [%] | CC50 at 24 h [6] [µM] | DPPH Scavenging at 100 µM, % [5] [%] | DPPH Scavenging at 1mM, % [5] [%]
O=C1CN(CCO)C(c2ccccc2Cl)c2cc(Cl)ccc2N1 (racemic) [(±)-6, (rac)-7-Chloro-5-(2-chlorophenyl)-4-(2-hydroxyethyl)-4,5-dihydro-1H-benzo[e][1,4]diazepin-2(3H)-one, reference compound] | 74.4 ± 4.1 | > 30 | 69.1 ± 6.4 | 33.4 |  |  |  |  |  |  | 
O=C(O)CCCC[C@H]1CCSS1 [(S)-Lipoic acid, reference compound] |  |  |  |  | > 30 | > 600 |  |  |  |  | 
O=C1O[C@H]([C@@H](O)CO)C(O)=C1O [Ascorbic acid, reference compound] |  |  |  |  |  |  | 16.2 ± 0.7 |  |  |  | 
O=C1CN(CCO)[C@@H](c2ccccc2Cl)c2cc(Cl)ccc2N1 [Compound R-6, (5R)-7-Chloro-5-(2-chlorophenyl)-4-(2-hydroxyethyl)-4,5-dihydro-1H-benzo[e][1,4]diazepin-2(3H)-one] | 75.1 ± 2.9 |  | 59.3 ± 10.6 | 14.2 |  | 11.8 ± 0.5 |  | 45.7 | > 100 | 10.30 ± 1.10 | 26.7 ± 1.3
O=C1CN(CCO)[C@H](c2ccccc2Cl)c2cc(Cl)ccc2N1 [Compound S-6, (5S)-7-Chloro-5-(2-chlorophenyl)-4-(2-hydroxyethyl)-4,5-dihydro-1H-benzo[e][1,4]diazepin-2(3H)-one] | 74.7 ± 2.5 |  | 71.5 ± 10.0 | 41.9 |  | 14.4 ± 0.2 |  | 51.5 | > 100 | 8.47 ± 2.42 | 25.3 ± 1.5
COc1ccc2[nH]cc(CCNC(C)=O)c2c1 [Mel, Melatonin, reference compound] | 68.0 ± 1.5 |  | 70.3 ± 4.3 | 31.1 |  |  |  | 46.1 |  |  | 
Cc1c(C)c2c(c(C)c1O)CCC(C)(C(=O)O)O2 (stereo not drawn) [Trolox, reference compound] |  |  |  |  |  |  | 11.4 ± 1 |  |  | 93.4 ± 0.5 | 92.2 ± 0.5
